Experimental data taken from patent US11014911B2, “CDK2 inhibitors” (Pfizer Inc., priority 2019, dated 2021).
Like-named read-outs stand apart in the source and are kept apart here.

Key:
GSK3β (H350L) [1] = molecular target: T1, GSK3β (H350L) (Homo sapiens (Human), UniProt P49841); assay: biochemical; conditions: GSK3β Ki (nM)
Method: (§1) The assay was initiated with the addition of ATP, following 15 minutes pre-incubation of enzyme and inhibitor at room temperature in the reaction mixture. The reaction was stopped after 30 minutes at room temperature by the addition of 50 μL of 80 mM EDTA.

[2] = molecular target: CDK2/Cyclin E1 full length (Homo sapiens (Human), UniProt P24941); assay: CDK2/Cyclin E1 full length mobility shift assay; assay type: biochemical
GSK3β (H350L) [3] = molecular target: T1, GSK3β (H350L); conditions: read-out: GSK3β Ki
Method: as §1

T1 sequence (P49841 whole entry, stated change not applied): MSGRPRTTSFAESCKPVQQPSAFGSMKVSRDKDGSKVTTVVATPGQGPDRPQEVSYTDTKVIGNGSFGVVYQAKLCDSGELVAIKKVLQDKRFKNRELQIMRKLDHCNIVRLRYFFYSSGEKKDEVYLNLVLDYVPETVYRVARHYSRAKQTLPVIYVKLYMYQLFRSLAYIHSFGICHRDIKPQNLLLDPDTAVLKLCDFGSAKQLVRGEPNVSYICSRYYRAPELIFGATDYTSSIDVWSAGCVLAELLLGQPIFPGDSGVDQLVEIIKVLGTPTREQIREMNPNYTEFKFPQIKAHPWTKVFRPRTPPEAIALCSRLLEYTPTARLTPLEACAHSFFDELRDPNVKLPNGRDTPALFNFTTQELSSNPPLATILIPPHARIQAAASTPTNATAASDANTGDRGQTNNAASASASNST

## Cc1c(CC(=O)Nc2cc([C@H]3CC[C@@H](OC(=O)NC(C)CC(F)(F)F)C3)[nH]n2)cnn1C (single isomer, unassigned) [Example 401]
GSK3β (H350L) [1]
  Ki: 32.9 nM
[2]
  Ki: 0.34 nM

## CCC(CO)CNC(=O)O[C@@H]1CC[C@H](c2cc(NC(=O)Cc3ccc(OC)nc3)n[nH]2)C1 (single isomer, unassigned) [Example 532]
GSK3β (H350L) [1]
  Ki: 2.97 nM
[2]
  Ki: 0.89 nM

## Cc1cnc(CC(=O)Nc2cc([C@H]3CC[C@@H](OC(=O)NC(C)CC(F)(F)F)C3)[nH]n2)cn1 (single isomer, unassigned) [Example 74]
GSK3β (H350L) [1]
  Ki: 13.2 nM
[2]
  Ki: 0.3 nM

## Cc1ncc(CC(=O)Nc2cc([C@H]3CC[C@@H](OC(=O)NC(C)CC(F)(F)F)C3)[nH]n2)s1 (single isomer, unassigned) [Example 80]
GSK3β (H350L) [1]
  Ki: 8.85 nM
[2]
  Ki: 0.15 nM

## CC(CC(F)(F)F)N(C)C(=O)O[C@@H]1CC[C@H](c2cc(NC(=O)Cc3cnn(C)c3)n[nH]2)C1 (single isomer, unassigned) [Example 414]
GSK3β (H350L) [1]
  Ki: 3.44 nM
[2]
  Ki: 0.42 nM

## CC(CC(F)(F)F)NC(=O)O[C@@H]1CC[C@H](c2cc(NC(=O)Cc3ccn(C)n3)n[nH]2)C1 (single isomer, unassigned) [Example 66]
GSK3β (H350L) [1]
  Ki: 17.9 nM
[2]
  Ki: 0.17 nM

## COc1ncc(CC(=O)Nc2cc([C@H]3CC[C@@H](OC(=O)NC4(C)CCOC4)C3)[nH]n2)s1 (single isomer, unassigned) [Example 126]
GSK3β (H350L) [1]
  Ki: 26.6 nM
[2]
  Ki: 0.27 nM

## CCC(CO)CNC(=O)O[C@@H]1CC[C@H](c2cc(NC(=O)Cc3ccnc(OC)c3)n[nH]2)C1 (single isomer, unassigned) [Example 534]
GSK3β (H350L) [1]
  Ki: 4.63 nM
[2]
  Ki: 0.85 nM

## COc1ccc(CC(=O)Nc2cc([C@H]3CC[C@@H](OC(=O)N4CCC4C)C3)[nH]n2)cn1 (single isomer, unassigned) [Example 151]
GSK3β (H350L) [1]
  Ki: 3.89 nM
[2]
  Ki: 0.15 nM

## CCC(NC(=O)O[C@@H]1CC[C@H](c2cc(NC(=O)Cc3cc(C)no3)n[nH]2)C1)C(F)(F)F (single isomer, unassigned) [Example 396]
GSK3β (H350L) [1]
  Ki: 139 nM
[2]
  Ki: 2.1 nM

## Cc1ncc(CC(=O)Nc2cc([C@H]3CC[C@@H](OC(=O)N4C[C@@H](C#N)[C@@H]4C)C3)[nH]n2)s1 (single isomer, unassigned) [Example 160]
GSK3β (H350L) [1]
  Ki: 1.72 nM
[2]
  Ki: 0.15 nM

## CCC(CO)CNC(=O)O[C@@H]1CC[C@H](c2cc(NC(=O)Cc3cc(F)cc(F)c3)n[nH]2)C1 (single isomer, unassigned) [Example 537]
GSK3β (H350L) [1]
  Ki: 10.7 nM
[2]
  Ki: 1.34 nM

## Cc1ccc(CC(=O)Nc2cc([C@H]3CC[C@@H](OC(=O)NC(C)CC(F)(F)F)C3)[nH]n2)cn1 (single isomer, unassigned) [Example 76]
GSK3β (H350L) [1]
  Ki: 4.96 nM
[2]
  Ki: 0.1 nM

## Cc1ncc(CC(=O)Nc2cc([C@H]3CC[C@@H](OC(=O)NC4(C)CCOC4)C3)[nH]n2)s1 (single isomer, unassigned) [Example 481]
GSK3β (H350L) [1]
  Ki: 44.6 nM
[2]
  Ki: 0.53 nM

## COc1ccc(CC(=O)Nc2cc([C@H]3CC[C@@H](OC(=O)NC4(C)CCOC4)C3)[nH]n2)cn1 (single isomer, unassigned) [Example 123]
GSK3β (H350L) [1]
  Ki: 8.87 nM
[2]
  Ki: 0.13 nM

## CC[C@H](C)NC(=O)O[C@@H]1CC[C@H](c2cc(NC(=O)Cc3cc(C)nn3C)n[nH]2)C1 [Example 338, (1R,3S)-3-(3-{[(1,3-dimethyl-1H-pyrazol-5-yl)acetyl]amino}-1H-pyrazol-5-yl)cyclopentyl (2S)-butan-2-ylcarbamate]
[2]
  Ki: 1.58 nM
GSK3β (H350L) [3]
  Ki: 94.4 nM

## Cc1cnc(CC(=O)Nc2cc([C@H]3CC[C@@H](OC(=O)NC(C)(C)C)C3)[nH]n2)cn1 [Example 299, (1R,3S)-3-(3-{[(5-methylpyrazin-2-yl)acetyl]amino}-1H-pyrazol-5-yl)cyclopentyl tert-butylcarbamate]
[2]
  Ki: 0.26 nM
GSK3β (H350L) [3]
  Ki: 29.9 nM

## CC[C@H](C)NC(=O)O[C@@H]1CC[C@H](c2cc(NC(=O)Cc3ccc(C(=O)N(C)C)cc3)n[nH]2)C1 [Example 364, (1R,3S)-3-[3-({[4-(dimethylcarbamoyl)-phenyl]acetyl}amino)-1H-pyrazol-5-yl]cyclopentyl (2S)-butan-2-ylcarbamate]
[2]
  Ki: 0.82 nM
GSK3β (H350L) [3]
  Ki: 59.9 nM

## CCNC(=O)O[C@@H]1CC[C@H](c2cc(NC(=O)Cc3ccc(C)nc3)n[nH]2)C1 [Example 227, (1R,3S)-3-(3-{[(6-methylpyridin-3-yl)acetyl]amino}-1H-pyrazol-5-yl)cyclopentyl ethylcarbamate]
[2]
  Ki: 1.21 nM
GSK3β (H350L) [3]
  Ki: 18.9 nM

## CC[C@H](C)NC(=O)O[C@@H]1CC[C@H](c2cc(NC(=O)Cc3cnc(C(F)(F)F)cn3)n[nH]2)C1 [Example 363, (1R,3S)-3-[3-({[5-(trifluoromethyl)pyrazin-2-yl]acetyl}amino)-1H-pyrazol-5-yl]cyclopentyl (2S)-butan-2-ylcarbamate]
[2]
  Ki: 0.35 nM
GSK3β (H350L) [3]
  Ki: 52 nM

## COc1ccc(CC(=O)Nc2cc([C@@H]3CC[C@H](OC(=O)NC4CCOCC4)C3)[nH]n2)cc1 [Example 501, (1S,3R)-3-(3-{[(4-methoxyphenyl)acetyl]amino}-1H-pyrazol-5-yl)cyclopentyl tetrahydro-2H-pyran-4-ylcarbamate]
[2]
  Ki: 1.43 nM
GSK3β (H350L) [3]
  Ki: 12.5 nM

## COc1cc(CC(=O)Nc2cc([C@H]3CC[C@@H](OC(=O)N4[C@@H](C)C[C@@H]4C)C3)[nH]n2)ccn1 [Example 149]
[2]
  Ki: 0.06 nM
GSK3β (H350L) [3]
  Ki: 5.58 nM

## CC(C)(C)NC(=O)O[C@@H]1CC[C@H](c2cc(NC(=O)Cc3cc(C(F)F)ccn3)n[nH]2)C1 [Example 314, (1R,3S)-3-[3-({[4-(difluoromethyl)pyridin-2-yl]acetyl}amino)-1H-pyrazol-5-yl]cyclopentyl tert-butylcarbamate]
[2]
  Ki: 0.41 nM
GSK3β (H350L) [3]
  Ki: 40.6 nM

## CC[C@H](C)NC(=O)O[C@@H]1CC[C@H](c2cc(NC(=O)Cc3cnn(C)n3)n[nH]2)C1 [Example 330, (1R,3S)-3-(3-{[(2-methyl-2H-1,2,3-triazol-4-yl)acetyl]amino}-1H-pyrazol-5-yl)cyclopentyl (2S)-butan-2-ylcarbamate]
[2]
  Ki: 0.55 nM
GSK3β (H350L) [3]
  Ki: 86 nM

## CCCNC(=O)O[C@H]1CC[C@@H](c2cc(NC(=O)Cc3ccno3)n[nH]2)C1 [Example 168, (1S,3R)-3-{3-[(1,2-oxazol-5-ylacetyl)amino]-1H-pyrazol-5-yl}cyclopentyl propylcarbamate]
[2]
  Ki: 0.36 nM
GSK3β (H350L) [3]
  Ki: 25.8 nM

## CCCNC(=O)O[C@H]1CC[C@@H](c2cc(NC(=O)c3cn(C)nc3C)n[nH]2)C1 [Example 174, (1S,3R)-3-(3-{[(1,3-dimethyl-1H-pyrazol-4-yl)carbonyl]amino}-1H-pyrazol-5-yl)cyclopentyl propylcarbamate]
[2]
  Ki: 3 nM
GSK3β (H350L) [3]
  Ki: > 95.3 nM

## CCN(C)C(=O)O[C@@H]1CC[C@H](c2cc(NC(=O)Cc3ccc(F)cc3)n[nH]2)C1 [Example 238, (1R,3S)-3-(3-{[(4-fluorophenyl)acetyl]amino}-1H-pyrazol-5-yl)cyclopentyl ethyl(methyl)carbamate]
[2]
  Ki: 1.13 nM
GSK3β (H350L) [3]
  Ki: 14.7 nM

## CC[C@H](C)NC(=O)O[C@@H]1CC[C@H](c2cc(NC(=O)c3cc(COC)nn3C)n[nH]2)C1 [Example 14, (1R,3S)-3-[3-({[3-(methoxymethyl)-1-methyl-1H-pyrazol-5-yl]carbonyl}amino)-1H-pyrazol-5-yl]cyclopentyl (2S)-butan-2-ylcarbamate]
[2]
  Ki: 0.27 nM
GSK3β (H350L) [3]
  Ki: 294 nM
